# Results reported in a melting point compilation (Tetko et al.; mined from patent text by program, amines drawn as free bases though some values may be those of a salt).
row,Structure (SMILES),melting point
1,COCc1nc2c(N)nc3cc(CCC#N)ccc3c2n1CC(C)(C)O,191 to 193 °C
2,CCOC(=O)c1nc(C)cc(C#N)c1C,55.5 °C
3,COc1cc(Cl)c(CO)c(Cl)c1,71 to 72 °C
4,CCCNc1nc(N)nc(-c2ccccc2)c1-c1ccc(=O)n(C(C)C)n1,209 to 212 °C
5,COc1ccc(OC)c(NC(=O)C2OC(=O)c3ccccc3C2c2ccc(F)cc2)c1 (stereo unspecified),133 to 136 °C
6,O=C1Nc2ccc(Cl)cc2C(c2ccccc2)N1C1CCN(Cc2ccccc2)CC1 (stereo unspecified),> 230 °C
7,CCCc1cc2cc(O)c(F)cc2c(Oc2ccc(/C=C/C(=O)O)cc2)c1-c1ccccc1,118 to 120 °C
8,Nc1nc(NCCSSCCNc2n[nH]c(N)n2)n[nH]1,231 to 233 °C
9,COc1ccc(CC(SC(C)=O)C(N)=O)cc1C(=O)NCc1ccc(C(F)(F)F)cc1 (stereo unspecified),159 to 161 °C
10,CCCNc1nnc(C)o1,46.5 to 47.5 °C
11,CSc1nnc2c(=O)[nH]c(-c3ccccc3OCC3CC3)nc2n1,235 to 236 °C
12,O=C1C(O)=C([N+](=O)[O-])C(=O)c2ccc(F)cc21,152 °C
13,CC(C)(C)OC(=O)NCC(=O)Nn1cccc1C(=O)c1ccccc1F,114 to 116 °C
14,CCCn1c(=O)nc(NNC(C)=O)c2[nH]c(C3CCCC3)nc21,> 270 °C
15,C=CCN1C2CCC3C1CCC2N3C(c1ccc(C(=O)N2CCCCC2)cc1)c1cccc(OC)c1 (stereo unspecified),94 to 96 °C
16,Clc1ccc(N2CC=C(COc3ccc(C4=NCCO4)cc3)CC2)nn1,176 °C
17,N#CC1CC2CC2N1C(=O)C(N)C12CC3CC(CC(O)(C3)C1)C2 (stereo unspecified),105 to 108 °C
18,CCCOCC1(C)CCCOc2cc(C#Cc3ccc(C(=O)O)cc3)ccc21 (stereo unspecified),148 to 149 °C
19,O=S(=O)(Oc1ccc(F)cc1)c1ccc(Oc2ccc(F)cc2)cc1,78 to 83 °C
20,Oc1nc2cc(Cl)c3nc(C(F)(F)F)[nH]c3c2nc1O,> 300 °C
21,CC(=O)OCC=C(C)C=CC=C(C)C=O,71 to 72 °C
22,Cc1ccn(-c2ccc(C(=O)N3Cc4cccnc4Oc4ccccc43)c(Cl)c2)n1,220 to 222 °C
23,CSC(=C(N)c1ccc2oc(C)cc2c1)S(C)=O (stereo unspecified),185 to 186 °C
24,COC(=O)c1cc([N+](=O)[O-])ccc1Nc1ccc(CCc2ccc(Cl)c(Cl)c2)cc1,107 to 108 °C
25,COc1cc2c(c(Cl)c1Cl)S(=O)(=O)C(c1ccccc1)=C2C,197 to 199 °C
26,COc1ccc2c(c1)C(C(=O)Nc1ccc(C(C)C)cc1)CCC2 (stereo unspecified),168 to 169 °C

row,Structure (SMILES),melting point
1,C=C(c1ccc(OC)c(C)c1)c1ccc(C)c(Br)c1,48 to 51 °C
2,O=C(Cc1ccccn1)OC(=O)Cc1ccccn1,105 to 106 °C
3,Cc1cccc(-c2nc(NC(=O)c3ccc(Cl)nc3)sc2-c2ccnc(NC3CCCC3)c2)c1,211 to 212 °C
4,COc1ccc(C=C(C#N)C(=O)O)cc1OC,206 °C
5,COc1cc(-n2c(C#N)c3n(c2=O)CCCCC3)c(F)cc1Cl,144 to 146 °C
6,Cn1nc(Oc2ccc(N)c(N)c2)cc1C(F)(F)F,109 to 111 °C
7,COc1ccc(CN2Cc3cncn3C(c3ccc(C#N)cc3)C2=O)cc1 (stereo unspecified),155 to 157 °C
8,CNC(=O)N(C)C1c2ccccc2Oc2ccccc21,173 to 174 °C
9,CCOC(=O)C1CCc2[nH]c3ccc(F)cc3c2C1 (stereo unspecified),115 to 117 °C
10,CC(C)(O)Cn1cnc2c(N)nc3cc(CCS(C)(=O)=O)ccc3c21,269 to 271 °C
11,CCC(CC)CCOCCCCCCNCC(O)c1ccc(O)c(NS(C)(=O)=O)c1 (stereo unspecified),69 to 71 °C
12,COc1ccc(Cl)c2c1[nH]c(=O)n1nc(CO)cc21,221 to 222 °C
13,O=C(CC(=O)C(F)F)c1cccs1,78 to 80 °C
14,CCC1CCCCN1C(=O)C=Cc1c(-c2cccc(N)c2)nn2ccccc12 (stereo unspecified),150 to 151 °C
15,CC(C)(C)N1CN(c2ccccc2)C2=NN=CC2=C1N,174 to 176 °C
16,O=C(Cc1cccc2ccccc12)N1CCC(c2nccc3occc23)CC1,50 °C
17,CNC(=O)[C@@H](NC(=O)[C@H](CC(=O)O)CC(C)C)C(C)(C)C,204 to 205 °C
18,O=[N+]([O-])c1ccc(N=Nc2ccc(O)c(CO)c2)cc1,178 to 179 °C
19,O=C(CCc1ccc(Br)cc1)Cn1ccnc1,71 to 73 °C
20,COc1cc(OC)c(S(=O)(=O)Cl)c(OC)c1,126 to 129 °C
21,CC(c1ccc(O)cc1)c1ccc(O)cc1,123 to 125 °C
22,CCn1cc(C(=O)O)c(=O)c2cc(F)c(N3CCC(N)C3)c(F)c21 (stereo unspecified),240 to 242 °C
23,C[C@]1(N2C(=O)c3ccc(CNC(=O)c4ccc(Br)cn4)cc3C2=O)CCC(=O)NC1=O,260 to 262 °C
24,COc1c(Cl)ccc(-c2cc(N)c(Cl)c(C(=O)NOCC(C)C)n2)c1F,145 to 148 °C
25,O=C(CCCN1CCN(c2ccc(F)cc2)CC1)NC1c2ccccc2C=Cc2ccccc21,233 to 235 °C
26,COc1cc(OC)c(-c2cc3ccccc3s2)cc1/C=C/C(=O)c1ccc(C(=O)NC(C)=O)cc1,228 to 229 °C

row,Structure (SMILES),melting point
1,CC(=O)Nc1c(Cl)cnc(OCCO)c1Cl,131 to 132 °C
2,CCCc1ccnc2c(=O)[nH]c(-c3cc(S(=O)(=O)N4CCNCC4)ccc3OCC)nc12,178 to 180 °C
3,NC1=NS(=O)N=C1NCCCOc1cc(CN2CCCCC2)ccn1 (stereo unspecified),154 to 158 °C
4,CC(C)CC(N=O)C(=O)NC(CC(C)C)C(=O)O (stereo unspecified),134 to 139 °C
5,COc1cccc(N(C)C(=O)c2cnc(Br)s2)c1,106 °C
6,Fc1ccc(CCCCN2CCN(c3ncc(F)cn3)CC2)cc1,59 to 61 °C
7,CNC1=NN(C(=O)c2ccccc2F)C(C)(C)S1,136 to 140 °C
8,Cn1c(C(F)(F)F)cc(=O)n(-c2cc(Oc3ccc4cc(O)ccc4c3)c(C#N)cc2F)c1=O,174 °C
9,CCCCCCCSc1nn2c(=O)c(OC)cnc2s1,68 to 71 °C
10,N#Cc1ccc(NC(=O)N[C@@H]2C[C@@H]2c2c(F)cccc2Cl)nc1 (relative stereo),189 °C
11,CC(C)(C)OCC(NC(=O)c1ccc2c(Cl)cnc(Cl)c2c1)C(=O)OC(C)(C)C (racemic),116 to 117 °C
12,CCOC(=O)C(C(=O)OCC)C(NC(C)=O)[PH](=O)O (stereo unspecified),113 to 114 °C
13,Cc1ccc2c(c1)C(c1ccccc1)CC(N1CCN(C3CC(c4ccccc4)c4cc(C)ccc4O3)CC1)O2 (stereo unspecified),241 °C
14,O=C(O)CN(CCN(CC(=O)O)C(Cc1ccccc1)C(=O)O)CCN(CC(=O)O)C(Cc1ccccc1)C(=O)O (stereo unspecified),111 to 115 °C
15,OCc1ccccc1-c1ccccc1CO,98 to 103 °C
16,COC(=O)c1ccc(-c2nc(COc3ccc(COc4nn(-c5ccccc5)cc4C=O)cc3OC)c(C)o2)cc1,190 to 191 °C
17,CCOC(=O)CCc1c[nH]c2cnc(-n3cncn3)cc12,129 to 131 °C
18,COc1ccc(-n2nc(C(F)F)cc2-c2ccc(SC)cc2)cc1,100 to 101 °C
19,CCOc1nn(-c2ccc(C(F)(F)F)cn2)cc1CCCOc1cccc(OC(C)(C)C(=O)O)c1,120 to 121 °C
20,COC(=O)c1cc2[nH]nc(N)c2s1,218 to 220 °C
21,Cc1noc(C)c1Cn1cc(NC(=O)c2scc(S(C)(=O)=O)c2Cl)cn1,202 to 204 °C
22,Cc1csc(C(=O)C(F)(F)F)n1,77 to 81 °C
23,O=C(O)COc1cccc2c1Cc1sc(SCc3ccccc3)nc1-2,166 to 169 °C
24,O=C(O)CCCCCn1c(=O)c2ccccc2n(CCCCN2CCC(OC(c3ccccc3)c3ccccc3)CC2)c1=O,155 to 157 °C
25,CC(=O)OC1CSC(Oc2cccc(-c3ccncc3)c2)C(OC(C)=O)C1OC(C)=O (stereo unspecified),112 °C
26,O=S(=O)(c1ccc(I)cc1)N1CCOCC1,141 to 144 °C

row,Structure (SMILES),melting point
1,c1ccc(-c2ncc(-c3cnc[nH]3)cn2)cc1,216 °C
2,CC1(C)c2ccccc2C(C)(C)N1Cc1ccccc1,61 to 61.4 °C
3,CC1(C)OC(c2ccc(S(C)(=O)=O)c(Br)c2)=C(c2ccccc2)C1=O,154 to 155 °C
4,CCCCOc1c(C(=O)O)n(CC(C)(C)C)c(=O)c2cc(F)ccc12,184 to 185 °C
5,CC1=CC(=C(C#N)C#N)C=C(C)N1CCOCCCl,148 to 149 °C
6,COc1ccc2c(c1)CN(CCc1ccc(NC(=O)c3cccc4c(=O)c5cccc(OC)c5[nH]c34)cc1)CC2,213 to 216 °C
7,CCC(C(C)=CC(CNC(=O)c1ccc2c(c1)CC(=O)N2)=NO)[N+](=O)[O-] (stereo unspecified),111 to 114 °C
8,CC[C@@H](C[C@H](O)[C@H](CC1CCCCC1)NC(=O)[C@H](Cc1c[nH]cn1)NC[C@H](Cc1ccccc1)NC(=O)OC(C)(C)C)C(C)C,144 °C
9,CC(C)(C)OC(=O)NNCc1cccc(C#N)c1,75 to 80 °C
10,c1ccc(-c2nc3cc(COc4ccc(CCCn5ccnc5)cc4)ccc3o2)cc1,137 to 138 °C
11,CCOC(=O)N(N)c1ccc(C)cc1,35 °C
12,O=C(O)c1c[nH]c2oc3ccccc3c(=O)c2c1=O,335 to 340 °C
13,COc1ccc2c(c1)c(S(=O)(=O)c1ccccc1)cn2CCNCc1ccccc1,98 to 99 °C
14,CN(C)C(=C(C#N)C#N)N(C)N=Cc1ccccc1,127 to 128 °C
15,Cc1csc(-c2ccc3c(c2)c2cc(-c4ccc(Cl)cc4Cl)c(=O)n(C)c2n3C)n1,255 to 257 °C
16,Oc1cc(O)nc(-c2ccc(Cl)cc2)n1,333 °C
17,Nc1ccc(C2CCNCC2)cc1,85 to 87 °C
18,O=C(O)Cc1ccc(-n2cccn2)c(Br)c1,100 to 101 °C
19,CCOc1cc2ncc(C#N)c(Nc3cccc(C(C)=O)c3)c2cc1OCC,191 to 194 °C
20,O=C(NCCCCCCCNC(=O)c1ccc(OC(F)(F)C(F)Cl)cc1)c1ccc(OC(F)(F)C(F)Cl)cc1 (stereo unspecified),153 to 154 °C
21,Cc1ccc2c(c1)C=Cc1cc(C)ccc1C2c1cn(-c2ccnc(NC(Cc3c[nH]cn3)C(=O)O)n2)c(=O)[nH]c1=O (stereo unspecified),223 °C
22,CCNC(=O)n1nc(Oc2ncc(C(F)(F)F)cc2Cl)c(C)c1C,124 to 125 °C
23,CC(C)(C)OC(=O)NC1CCCCCC=CC2CC2(C(=O)NS(=O)(=O)C2CC2)NC(=O)C2CC(OC(=O)c3cccnc3)CN2C1=O (stereo unspecified),157 to 159 °C
